Test results taken from patent US20110124888A1, “STYRYLBENZOFURAN DERIVATIVES AS INHIBITORS FOR BETA-AMYLOID FIBRIL FORMATION AND PREPARATION METHOD THEREOF” (Korea Institute of Science and Technology, priority 2008, published 2011).

How the values were obtained:
[1] = tested on: transgenic double tg mice (APPswe, PSEN1 dE9); assay: In vivo fear conditioning test in transgenic mice; settings: for Increase rate (fold) of freezing: 5 to 12 months of age, based on the freezing (%) of Tg vehicle group
Method: The tails of 3-week old mice born from Male B6C3-Tg (APPswe, PSEN1 dE9, Jackson Laboratory Co., Maine, A) and female B6C3F1 (central Lab. Animal Inc., Korea) were cut in lengths of about 0.5 cm (tail biopsy). The genomic DNAs were extracted from the tail samples and subjected to a genotype analysis to screen transgenic double tg mice.
From 5 months to 12 months after the birth, the mice were administered orally with the compound of Example 9, in an amount of 30 mg/kg or 100 mg/kg every day. As a comparative compound, tramiprosate (Aisen, P. S. et. al., Curr. Alzheimer Res. 2007, 4, 473) was used, which binds to beta-amyloid protein to inhibit the deposition and cytotoxicity to the protein. The compounds were administrated.
3) Fear Conditioning Test
At the First day of training, the mice were placed in a conditioning box and adjusted for 2 min. The fear conditioning was performed with a conditional stimulus (CS) of 75 dB for 20 sec, together with an electrical stimulus (unconditional stimulus (US)) of 0.5 mA for final 2 sec in the conditional stimulus period. After 1 min, the animals were transferred to a cage. After 24 hrs, the retention test was performed. The animals were placed in the same conditioning box as used above and observed for 5 min. The freezing response was measured without CS and US. The freezing response is defined in the state of the animals keeping still except for breathing.

[2] = tested on: congo red-positive beta-amyloid plagues; assay: Immunohistochemistry: congo red-positive beta-amyloid plaque count in hippocampus and cortex of transgenic mice; type: in vivo; settings: for Reduction rate (%) of beta-amyloid plaques, cortex / Reduction rate (%) of beta-amyloid plaques, hippocampus / Total reduction rate (%) of beta-amyloid plaques: vs Tg group
Method: The transgenic mice were screened and drug was administered thereto as described in 1) and 2) of Experimental Example 4. The brain was separated from the transgenic mouse and fixed in 10% neutral formalin solution. A region of the brain including the hippocampus and the cortex were subjected to removal, washing, dehydration and paraffin infiltration to obtain paraffin block including the brain tissue. The paraffin block was subjected to thin section in thickness of 8 μm to obtain the sections of all regions of hippocampus. Among them, 10 sections were elected at regular intervals. They were deparaffinized, hydrated, immersed in Mayer's hematoxylin for 1 min and rinsed with tap water. The rinsed tissue was reacted in an alkaline sodium chloride solution for 20 min, after then was reacted in an alkaline congo red solution for 20 min. The resulting tissue was washed with 100% ethyl alcohol, cleared with xylene and mounted using a synthetic mounting medium. In the hippocampus and cortex regions of the tissue preparations strained with congo red, congo red-positive beta-amyloid plagues were counted.

COc1ccc2cc(C=Cc3ccc(N(C)C)cc3)oc2c1 [Compound 9, 6-methoxy-2-(4-dimethylaminostyryl)benzofuran]
Increase rate (fold) of freezing ([1]; 30 mg/kg orally every day): 3.2 fold | Increase rate (fold) of freezing ([1]; 100 mg/kg orally every day): 3.8 fold | degree of memory compared with tramiprosate (in words) ([1]; 30 and 100 mg/kg): much higher degree of memory in a dose-dependent manner | Reduction rate (%) of beta-amyloid plaques, cortex ([2]; 30 mg/kg): 43% | Reduction rate (%) of beta-amyloid plaques, hippocampus ([2]; 30 mg/kg): 29% | Total reduction rate (%) of beta-amyloid plaques ([2]; 30 mg/kg): 41% | Reduction rate (%) of beta-amyloid plaques, cortex ([2]; 100 mg/kg): 61% | Reduction rate (%) of beta-amyloid plaques, hippocampus ([2]; 100 mg/kg): 64% | Total reduction rate (%) of beta-amyloid plaques ([2]; 100 mg/kg): 61% | beta-amyloid deposition in stained hippocampus and cortex tissues compared with tramiprosate (in words) ([2]; FIGS. 1 and 2): remarkably reduced beta-amyloid deposition | reduction rate of beta-amyloid deposition compared with tramiprosate (in words) ([2]; Table 12, 30 and 100 mg/kg): remarkable reduction rate of beta-amyloid deposition in a dose-dependent manner
